Reference: paper PMC9782211 (Microorganisms, 2022)

Tests used:
[1] = target: hERG ion channel (Homo sapiens, UniProt Q12809); assay: Manual patch clamp, hERG channel currents; type: cell-based; details: 1 µg/mL, fraction
Description: Manual patch clamp experiments were performed in the whole cell configuration [20] at room temperature. An EPC 10 patch clamp amplifier and the PatchMaster software (v2x90.5; both HEKA Elektronik, Germany) were used. […] The data were analyzed using R (version 3.6.3).
The manual patch clamp recordings on the hERG ion channel were performed with the same stimulation protocol as previously described, with an adjusted holding potential of −70 mV. After the establishment of the whole cell, the stimulation protocol was executed every 15 s for a period of 20 min. The application protocol had the following course: 5 min negative control period with an application of 0.1% DMSO, 10 min application of the test compound in one concentration, and 5 min positive control period with an application of E4031 (10 µM).
The extracellular solution for the recordings contained (in mM): 145 NaCl, 4 KCl, 10 glucose, 10 HEPES, 2 CaCl2, and 1 MgCl2; pH was adjusted to 7.4 by adding NaOH. The osmolarity of the solution was adjusted to 305 mOsmol/kg. The intracellular solution contained (in mM): 120 KCl, 1.7 MgCl2, 4 K2ATP, 5 CaCl2, 10 HEPES, and 10 EGTA; pH was adjusted to 7.2 by adding KOH. The osmolarity was adjusted to 292 mOsmol/kg.

[2] = tested on: human mononuclear cells (hMNCs); assay: MTT test, metabolic activity of human mononuclear cells; type: cell-based
Description: Furthermore, the MTT assay was performed to determine the metabolic activity of the cells. In this test, the determination of cell viability is based on the reduction of the yellow water-soluble substance 3-(4,5-Dimethylthiazol-2-yl)-2,5-diphenyltetrazoliumbromid (MTT) into a blue-violet water-insoluble formacan.

[3] = tested on: male and female Wistar rats; assay: 14-day repeated dose toxicology, continuous intravenous infusion; type: in vivo, rat
Description: Continuous intravenous infusion was performed over 14 days with 0.5 mg/kg, 3.2 mg/kg, and 20.0 mg/kg Pep19-2.5 and compared to the vehicle in male and female Wistar rats. Groups comprised 10 animals per gender, with an additional 5 animals per gender for recovery animals in the vehicle and high dose groups. The details of the 14-day repeated dose toxicity study will be published elsewhere.
Continuous intravenous infusion was performed over 14 days with 0.5 mg/kg, 3.2 mg/kg and 20.0 mg/kg Pep19-2.5 and compared to the vehicle in male and female Wistar rats. Groups comprised 10 animals per gender, with an additional 5 animals per gender for recovery animals in the vehicle and high dose groups. Based on the parameters determined, the following results were found: […]

Chain of hERG ion channel (Q12809 whole entry): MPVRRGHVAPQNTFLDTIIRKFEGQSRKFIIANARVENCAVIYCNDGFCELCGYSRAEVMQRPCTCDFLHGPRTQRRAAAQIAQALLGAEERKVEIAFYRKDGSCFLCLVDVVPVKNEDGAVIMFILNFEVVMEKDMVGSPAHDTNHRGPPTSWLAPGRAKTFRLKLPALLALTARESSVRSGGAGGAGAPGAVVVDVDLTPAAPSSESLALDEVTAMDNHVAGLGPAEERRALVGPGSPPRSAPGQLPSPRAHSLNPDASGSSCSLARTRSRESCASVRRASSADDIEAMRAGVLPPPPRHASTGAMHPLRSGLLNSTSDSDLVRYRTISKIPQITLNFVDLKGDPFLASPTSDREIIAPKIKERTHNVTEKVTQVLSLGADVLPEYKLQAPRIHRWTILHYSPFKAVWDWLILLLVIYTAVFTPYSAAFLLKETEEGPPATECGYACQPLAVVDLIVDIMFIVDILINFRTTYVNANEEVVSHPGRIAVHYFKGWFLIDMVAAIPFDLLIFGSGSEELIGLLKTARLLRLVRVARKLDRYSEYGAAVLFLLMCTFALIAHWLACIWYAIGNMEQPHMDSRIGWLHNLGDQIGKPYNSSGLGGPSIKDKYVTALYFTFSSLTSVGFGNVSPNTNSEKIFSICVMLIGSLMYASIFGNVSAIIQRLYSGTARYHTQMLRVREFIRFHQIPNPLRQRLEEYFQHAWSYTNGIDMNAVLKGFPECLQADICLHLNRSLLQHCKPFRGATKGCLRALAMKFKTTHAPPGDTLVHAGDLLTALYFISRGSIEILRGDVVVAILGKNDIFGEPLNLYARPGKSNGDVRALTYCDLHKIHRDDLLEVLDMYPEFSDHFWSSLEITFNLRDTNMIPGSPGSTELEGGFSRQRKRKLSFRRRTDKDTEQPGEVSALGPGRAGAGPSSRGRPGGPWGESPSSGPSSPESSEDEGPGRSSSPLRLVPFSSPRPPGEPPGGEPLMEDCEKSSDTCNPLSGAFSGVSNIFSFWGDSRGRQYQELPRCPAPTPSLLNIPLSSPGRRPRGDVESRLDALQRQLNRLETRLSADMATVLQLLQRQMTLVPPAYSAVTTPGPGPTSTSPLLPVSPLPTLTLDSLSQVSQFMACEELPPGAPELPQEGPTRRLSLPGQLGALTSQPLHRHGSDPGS

## N=C(N)NCCC[C@H](NC(=O)[C@H](Cc1ccc(O)cc1)NC(=O)[C@H](CCCCN)NC(=O)[C@H](CCCCN)NC(=O)[C@H](CS)NC(=O)CN)C(=O)N[C@@H](CCCNC(=N)N)C(=O)N[C@@H](Cc1ccccc1)C(=O)N[C@@H](CCCNC(=N)N)C(=O)N[C@@H](Cc1c[nH]c2ccccc12)C(=O)N[C@@H](CCCCN)C(=O)N[C@@H](Cc1ccccc1)C(=O)N[C@@H](CCCCN)C(=O)NCC(=O)N[C@@H](CCCCN)C(=O)N[C@@H](Cc1ccccc1)C(=O)N[C@@H](Cc1c[nH]c2ccccc12)C(=O)N[C@@H](Cc1ccccc1)C(=O)N[C@@H](Cc1c[nH]c2ccccc12)C(=O)NCC(N)=O [Pep19-2.5]
[1]
  Rel. Rem. Current ± SD (Manual Patch-Clamp): 1.00 ± 0.04
[2]; at 100 μg/mL
  metabolic state of the hMNC: decreases dramatically
[2]; hMNC, MTT test, Figure 1
  concentration above which cytotoxicity increases (MTT): above 20 μg/mL
[3]; 20 mg/kg dose group
  injection site findings: local irritating effect
[3]; all dose groups
  body weight gain: No statistically significant effect
  ophthalmology, clinical chemistry, urine, organ weights: not affected
[3]; female Wistar rats, 0.5 mg/kg/day, n = 10
  aPTT: 19.9 ± 2.2 s
[3]; female, 0.5 mg/kg/day, n = 10
  PT: 20.3 ± 2.5 s
  TT: 25.7 ± 1.0 s
[3]; female, 3.2 mg/kg/day, n = 10
  TT: 25.4 ± 1.0 s
[3]; female, 20.0 mg/kg/day, n = 10
  TT: 25.8 ± 0.7 s
[3]; high dose group 20 mg/kg
  mortality: One male of the high dose group died
[3]; high dose group, both genders, complete recovery
  reticulocytes: slightly reduced
[3]; high dose group, single animals
  behavioural findings: test item-related behavioural findings (increased activity, muscle tremor, increased incidence of animals showing signs of discomfort, such as chromorhinorrhea or piloerection)
[3]; male Wistar rats, 0.5 mg/kg/day, end of infusion, mean ± SD, n = 9
  aPTT: 19.9 ± 1.7 s
[3]; male, 0,5 mg/kg/day, n = 9
  TT: 25.3 ± 1.0 s
[3]; male, 0.5 mg/kg/day, n = 9
  PT: 20.0 ± 1.1 s
[3]; male, 3.2 mg/kg/day, n = 10
  PT: 21.5 ± 1.3 s
  TT: 25.0 ± 0.9 s
  aPTT: 18.6 ± 1.8 s
[3]; male, 20.0 mg/kg/day, n = 7
  TT: 25.0 ± 0.8 s
[3]; male, n = 7, printed 0.5 mg/kg/day
  PT: 20.9 ± 1.3 s
[3]; rat, in vivo
  histopathological systemic toxicity: absence of any histopathological systemic toxicity
